Experimental data published in patent publication US12036197B2, “Composition for improving bioavailability of drugs” (priority 2019, dated 2024).
Where a SMILES comes first, the peptide text is derived from it. Bridges are numbered along the chain shown (N, C = ends). [ ]: non-standard residue; d: D form.

Columns and labels:
[1] = PK test for small-intestinal administration of ACTH (ELISA); assay type: in vivo; settings: SD rats
Text: (§1) Laboratory Animals: Adult Male SD Rats.
(§2) The plasma was collected and subjected to quick freezing.

[2] = PK test for small-intestinal administration of Bivalirudin (ELISA); assay type: in vivo; settings: SD rats
Text: as §1, §2

in vivo [3] = assay: in vivo
Text: as §1, §2

in vivo [4] = assay: in vivo; design: species or system SD rats; settings: male, SD, rat
Text: The composition of the present invention: polyethylene glycol 4000, carbomer, chitosan oligosaccharide, and citric acid, in a weight ratio of 19:6:6:60.
as §1, §2

[5] = PK test for small-intestinal administration of Octreotide (ELISA); assay type: in vivo; settings: SD rats
Text: as §1, §2

[6] = PK test for small-intestinal administration of Oxytocin (ELISA); assay type: in vivo; settings: SD rats
Text: as §1, §2

[7] = PK test for small-intestinal administration of Teduglutide (ELISA); assay type: in vivo; settings: SD rats
Text: The composition of the present invention: Tween 80, Carbomer 910, carboxymethyl Chitosan, and Sodium Tartrate, in a weight ratio of 25:8:8:80.
as §1, §2

[8] = PK test for small-intestinal administration of Teriparatide (ELISA); assay type: in vivo; settings: SD rats
Text: as §1, §2

[9] = PK test for small-intestinal administration of Thymosin alpha-1 (ELISA); assay type: in vivo; settings: SD rats
Text: as §1, §2

in vivo [10] = settings: male, SD, rat
[11] = PK test for small-intestinal administration of Vasopressin (ELISA); assay type: in vivo; settings: SD rats
Text: as §1, §2

[12] = PK test for small-intestinal administration of Gramicidin (ELISA); assay type: in vivo; settings: SD rats
Text: as §1, §2

[13] = PK test for small-intestinal administration of Growth Hormone (ELISA); assay type: in vivo; settings: SD rats
Text: as §1, §2

[14] = PK test for small-intestinal administration of Mecasermin (ELISA); assay type: in vivo; settings: SD rats
Text: as §1, §2

[15] = PK test for small-intestinal administration of rInsulin (ELISA); assay type: in vivo; settings: SD rats; small-intestinal administration at 200 μg/kg without composition
Text: as §1, §2

[16] = small-intestinal administration at 200 μg/kg without composition
[17] = rat, in vivo, ei 200 μg/kg with composition sodium lauryl sulfate, carbomer, chitosan, sodium citrate 20:6.5:6.5:65 (1:5), vs iv 1 μg/kg

CSCC[C@H](NC(=O)[C@H](CO)NC(=O)[C@H](Cc1ccc(O)cc1)NC(=O)[C@@H](N)CO)C(=O)N[C@@H](CCC(=O)O)C(=O)N[C@@H](Cc1cnc[nH]1)C(=O)N[C@@H](Cc1ccccc1)C(=O)N[C@@H](CCCNC(=N)N)C(=O)N[C@@H](Cc1c[nH]c2ccccc12)C(=O)NCC(=O)N[C@@H](CCCCN)C(=O)N1CCC[C@H]1C(=O)N[C@H](C(=O)NCC(=O)N[C@@H](CCCCN)C(=O)N[C@@H](CCCCN)C(=O)N[C@@H](CCCNC(=N)N)C(=O)N[C@@H](CCCNC(=N)N)C(=O)N1CCC[C@H]1C(=O)N[C@H](C(=O)N[C@@H](CCCCN)C(=O)N[C@H](C(=O)N[C@@H](Cc1ccc(O)cc1)C(=O)N1CCC[C@H]1C(=O)N[C@@H](CC(N)=O)C(=O)NCC(=O)N[C@@H](C)C(=O)N[C@@H](CCC(=O)O)C(=O)N[C@@H](CC(=O)O)C(=O)N[C@@H](CCC(=O)O)C(=O)N[C@@H](CO)C(=O)N[C@@H](C)C(=O)N[C@@H](CCC(=O)O)C(=O)N[C@@H](C)C(=O)N[C@@H](Cc1ccccc1)C(=O)N1CCC[C@H]1C(=O)N[C@@H](CC(C)C)C(=O)N[C@@H](CCC(=O)O)C(=O)N[C@@H](Cc1ccccc1)C(=O)O)C(C)C)C(C)C)C(C)C [ACTH] (H-SYSMEHFRWGKPVGKKRRPVKVYPNGAEDESAEAFPLEF-OH)
blood concentration [1, 16]: lower than the detection limit of ELISA | bioavailability [1, 17]: 1.86%

CC[C@H](C)[C@H](NC(=O)[C@H](CCC(=O)O)NC(=O)[C@H](CCC(=O)O)NC(=O)[C@H](Cc1ccccc1)NC(=O)[C@H](CC(=O)O)NC(=O)CNC(=O)[C@H](CC(N)=O)NC(=O)CNC(=O)CNC(=O)CNC(=O)CNC(=O)[C@@H]1CCCN1C(=O)[C@H](CCCNC(=N)N)NC(=O)[C@@H]1CCCN1C(=O)[C@H](N)Cc1ccccc1)C(=O)N1CCC[C@H]1C(=O)N[C@@H](CCC(=O)O)C(=O)N[C@@H](CCC(=O)O)C(=O)N[C@@H](Cc1ccc(O)cc1)C(=O)N[C@@H](CC(C)C)C(=O)O [Bivalirudin]
blood concentration [2, 16]: lower than the detection limit of ELISA | bioavailability ([2]; rat, in vivo, ei 200 μg/kg with composition sodium lauryl sulfate, carbomer, chitosan, citric acid 19:6.5:7:67 (1:5), vs iv 1 μg/kg): 1.63%

CC(C)C[C@H](NC(=O)CNC(=O)[C@H](Cc1ccc(O)cc1)NC(=O)[C@H](CO)NC(=O)[C@H](Cc1c[nH]c2ccccc12)NC(=O)[C@H](Cc1cnc[nH]1)NC(=O)[C@@H]1CCC(=O)N1)C(=O)N[C@@H](CCCNC(=N)N)C(=O)N1CCC[C@H]1C(=O)NCC(N)=O [Gonadorelin]
blood concentration (in vivo [3]; SD rats, small-intestinal administration at 200 μg/kg without composition): lower than the detection limit of ELISA | bioavailability (in vivo [3]; male, SD, rat, plasma, 200 μg/kg): 1.58%

CCNC(=O)[C@@H]1CCCN1C(=O)[C@H](CCCNC(=N)N)NC(=O)[C@H](CC(C)C)NC(=O)[C@@H](CC(C)C)NC(=O)[C@H](Cc1ccc(O)cc1)NC(=O)[C@H](CO)NC(=O)[C@H](Cc1c[nH]c2ccccc12)NC(=O)[C@H](Cc1c[nH]cn1)NC(=O)[C@@H]1CCC(=O)N1 [Leuprolide]
bioavailability (in vivo [4]): 1.32%

C[C@@H](O)[C@@H]1NC(=O)[C@H](CCCCN)NC(=O)[C@@H](Cc2c[nH]c3ccccc23)NC(=O)[C@H](Cc2ccccc2)NC(=O)[C@@H](NC(=O)[C@H](N)Cc2ccccc2)CSSC[C@@H](C(=O)N[C@H](CO)[C@@H](C)O)NC1=O [Octreotide]
blood concentration [5, 16]: lower than the detection limit of ELISA | bioavailability ([5]; male, rat, plasma, ei 200 μg/kg with composition sodium lauryl sulfate, carbomer, chitosan, sodium citrate 21:7:6:69 (1:5), vs iv 1 μg/kg): 1.71%

CC[C@H](C)[C@@H]1NC(=O)[C@H](Cc2ccc(O)cc2)NC(=O)[C@@H](N)CSSC[C@@H](C(=O)N2CCC[C@H]2C(=O)N[C@@H](CC(C)C)C(=O)NCC(N)=O)NC(=O)[C@H](CC(N)=O)NC(=O)[C@H](CCC(N)=O)NC1=O [Oxytocin]
blood concentration [6, 16]: lower than the detection limit of ELISA | bioavailability ([6]; male, rat, plasma, ei 200 μg/kg with composition sodium lauryl sulfate, carbomer 934, water-soluble chitosan, disodium edetate 24:7.5:7:75 (1:5), vs iv 1 μg/kg): 2.58%

CC[C@H](C)[C@H](NC(=O)[C@H](Cc1ccccc1)NC(=O)[C@H](CC(=O)O)NC(=O)[C@H](CCCNC(=N)N)NC(=O)[C@H](C)NC(=O)[C@H](C)NC(=O)[C@H](CC(C)C)NC(=O)[C@H](CC(N)=O)NC(=O)[C@H](CC(=O)O)NC(=O)[C@H](CC(C)C)NC(=O)[C@@H](NC(=O)[C@@H](NC(=O)[C@H](CC(N)=O)NC(=O)[C@H](CCSC)NC(=O)[C@H](CCC(=O)O)NC(=O)[C@H](CC(=O)O)NC(=O)[C@H](CO)NC(=O)[C@H](Cc1ccccc1)NC(=O)[C@H](CO)NC(=O)CNC(=O)[C@H](CC(=O)O)NC(=O)CNC(=O)[C@@H](N)Cc1c[nH]cn1)[C@@H](C)O)[C@@H](C)CC)C(=O)N[C@@H](CC(N)=O)C(=O)N[C@@H](Cc1c[nH]c2ccccc12)C(=O)N[C@@H](CC(C)C)C(=O)N[C@H](C(=O)N[C@@H](CCC(N)=O)C(=O)N[C@H](C(=O)N[C@@H](CCCCN)C(=O)N[C@H](C(=O)N[C@H](C(=O)N[C@@H](CC(=O)O)C(=O)O)[C@@H](C)O)[C@@H](C)CC)[C@@H](C)O)[C@@H](C)CC [Teduglutide]
blood concentration [7, 16]: lower than the detection limit of ELISA | bioavailability ([7]; male, rat, plasma, ei 200 μg/kg with composition Tween 80, Carbomer 910, carboxymethyl Chitosan, Sodium Tartrate 25:8:8:80 (1:5), vs iv 1 μg/kg): 2.13%

CC[C@H](C)[C@H](NC(=O)[C@H](CCC(=O)O)NC(=O)[C@H](CO)NC(=O)[C@@H](NC(=O)[C@@H](N)CO)C(C)C)C(=O)N[C@@H](CCC(N)=O)C(=O)N[C@@H](CC(C)C)C(=O)N[C@@H](CCSC)C(=O)N[C@@H](Cc1cnc[nH]1)C(=O)N[C@@H](CC(N)=O)C(=O)N[C@@H](CC(C)C)C(=O)NCC(=O)N[C@@H](CCCCN)C(=O)N[C@@H](Cc1cnc[nH]1)C(=O)N[C@@H](CC(C)C)C(=O)N[C@@H](CC(N)=O)C(=O)N[C@@H](CO)C(=O)N[C@@H](CCSC)C(=O)N[C@@H](CCC(=O)O)C(=O)N[C@@H](CCCN=C(N)N)C(=O)N[C@H](C(=O)N[C@@H](CCC(=O)O)C(=O)N[C@@H](Cc1c[nH]c2ccccc12)C(=O)N[C@@H](CC(C)C)C(=O)N[C@@H](CCCN=C(N)N)C(=O)N[C@@H](CCCCN)C(=O)N[C@@H](CCCCN)C(=O)N[C@@H](CC(C)C)C(=O)N[C@@H](CCC(N)=O)C(=O)N[C@@H](CC(=O)O)C(=O)N[C@H](C(=O)N[C@@H](Cc1cnc[nH]1)C(=O)N[C@@H](CC(N)=O)C(=O)N[C@@H](Cc1ccccc1)C(=O)O)C(C)C)C(C)C [Teriparatide]
blood concentration [8, 16]: lower than the detection limit of ELISA | bioavailability ([8]; male, rat, plasma, ei 200 μg/kg with composition sodium lauryl sulfate, carbomer, chitosan, sodium citrate 20:6.5:6.5:65 (1:5), vs iv 1 μg/kg): 2.08%

CC[C@H](C)[C@H](NC(=O)[C@H](CCC(=O)O)NC(=O)[C@H](CO)NC(=O)[C@H](CO)NC(=O)[C@@H](NC(=O)[C@H](CC(=O)O)NC(=O)[C@@H](NC(=O)[C@H](C)NC(=O)[C@H](C)NC(=O)[C@H](CC(=O)O)NC(=O)[C@H](CO)NC(C)=O)C(C)C)[C@@H](C)O)C(=O)N[C@H](C(=O)N[C@H](C(=O)N[C@@H](CCCCN)C(=O)N[C@@H](CC(=O)O)C(=O)N[C@@H](CC(C)C)C(=O)N[C@@H](CCCCN)C(=O)N[C@@H](CCC(=O)O)C(=O)N[C@@H](CCCCN)C(=O)N[C@@H](CCCCN)C(=O)N[C@@H](CCC(=O)O)C(=O)N[C@H](C(=O)N[C@H](C(=O)N[C@@H](CCC(=O)O)C(=O)N[C@@H](CCC(=O)O)C(=O)N[C@@H](C)C(=O)N[C@@H](CCC(=O)O)C(=O)N[C@@H](CC(N)=O)C(=O)O)C(C)C)C(C)C)[C@@H](C)O)[C@@H](C)O [Thymosin alpha-1] (Ac-SDAAVDTSSEITTKDLKEKKEVVEEAEN-OH)
blood concentration [9, 16]: lower than the detection limit of ELISA | bioavailability [9, 17]: 0.65%

CC(C)[C@@H]1NC(=O)[C@H](CCCCN)NC(=O)[C@@H](Cc2c[nH]c3ccccc23)NC(=O)[C@H](Cc2ccc(O)cc2)NC(=O)[C@@H](NC(=O)[C@H](N)Cc2ccccc2)CSSC[C@@H](C(=O)N[C@@H](Cc2c[nH]c3ccccc23)C(N)=O)NC1=O [Vapreotide] (H-[dF]CY[dW]KVCW-NH2; disulfide 2-7)
bioavailability (in vivo [10]): 1.69%

NC(=O)CC[C@@H]1NC(=O)[C@H](Cc2ccccc2)NC(=O)[C@H](Cc2ccc(O)cc2)NC(=O)[C@@H](N)CSSC[C@@H](C(=O)N2CCC[C@H]2C(=O)N[C@@H](CCCN=C(N)N)C(=O)NCC(N)=O)NC(=O)[C@H](CC(N)=O)NC1=O [Vasopressin]
blood concentration [11, 16]: lower than the detection limit of ELISA | bioavailability ([11]; male, rat, plasma, ei 200 μg/kg with composition sodium lauryl sulfate, carbomer, chitosan, sodium citrate 23:8:7.5:80 (1:5), vs iv 1 μg/kg): 1.81%

Gramicidin D
bioavailability of small-intestinal administration ([12]; ei 200 μg/kg with composition sodium lauryl sulfate, carbomer, chitosan, sodium citrate 19:6:6:60 (1:5), vs iv 1 μg/kg): 1.18% | blood concentration [12, 16]: lower than the detection limit of ELISA

Growth Hormone: Growth Hormone (rhGH)
bioavailability of small-intestinal administration ([13]; ei 200 μg/kg with composition sodium lauryl sulfate, carbomer, chitosan, sodium citrate 20:6.5:6.5:65 (1:5), vs iv 1 μg/kg): 0.32% | blood concentration [13, 16]: lower than the detection limit of ELISA

Mecasermin
bioavailability of small-intestinal administration ([14]; ei 200 μg/kg with composition sodium lauryl sulfate, carbomer, chitosan, sodium citrate 21:6:7:65 (1:5), vs iv 1 μg/kg): 1.38% | blood concentration [14, 16]: lower than the detection limit of ELISA

rInsulin: Recombinant Insulin (rInsulin)
blood concentration [15]: lower than the detection limit of ELISA
